Experimental data reported in patent US20180352841A1, “COMPOSITION HAVING RICH-TASTE IMPARTING FUNCTION” (AJINOMOTO CO., INC., priority 2016, published 2018).

Tests used:
[1] = Organoleptic evaluation of coffee-like thickness in milk coffee with 0.2 ppm γ-Glu-Val-Gly (Example 1); conditions: for Coffee-like thickness (initial taste) / Coffee-like thickness (middle to aftertaste): milk coffee + 0.2 ppm γ-Glu-Val-Gly (control sample = score 0); for Coffee-like thickness (initial taste): 0 to 1 second after drinking, score 0 to 3 (0 no effect, 1 weakly effective, 2 effective, 3 strongly effective), 2 to 4 panelists, ingredient ppm: succinic acid 5, proline 12.5, KH2PO4 3, K2HPO4 12.5, L-tartaric acid 6, adipic acid 25, citric acid 3.5, CaCl2 50, MgCl2 12.5, DL-malic acid 3, trisodium citrate 0.8, sodium fumarate 1.5; for Coffee-like thickness (middle to aftertaste): 1 to 5 seconds after drinking, score 0 to 3, ingredient ppm as in Table 1 c0 (succinic acid 5, proline 12.5, KH2PO4 3, K2HPO4 12.5, L-tartaric acid 6, adipic acid 25, citric acid 3.5, CaCl2 50, MgCl2 12.5, DL-malic acid 3, trisodium citrate 0.8, sodium fumarate 1.5); for Thickness-enhancing effect for the initial taste: milk coffee + 0.2 ppm γ-Glu-Val-Gly, summary of Table 1
Description: As an evaluation system, milk coffee (“Birdy Robusta”, Ajinomoto Co., (Thailand) Ltd.) was used. To this milk coffee, 0.2 ppm of γ-Glu-Val-Gly was added, to prepare a control sample.
Organoleptic evaluation was performed by 2 to 4 persons of special panelists for strength of “coffee-like thickness” of each sample, to determine thickness-enhancing effects (thickness-boosting effect) of the ingredients to be evaluated.

[2] = Organoleptic evaluation of coffee-like thickness in milk coffee with 0.8 ppm γ-Glu-Abu (Example 3); conditions: for thickness-enhancing effect for initial taste: milk coffee + 0.8 ppm γ-Glu-Abu, summary of Table 3; for Coffee-like thickness (initial taste) / Coffee-like thickness (middle to aftertaste): milk coffee + γ-Glu-Abu 0.8 ppm (control = score 0), score 0 to 3, L-tartaric acid 6 ppm, adipic acid 25 ppm, citric acid 3.5 ppm; for Coffee-like thickness (initial taste): 0 to 1 second; for Coffee-like thickness (middle to aftertaste): 1 to 5 seconds
Description: (§1) Organoleptic evaluation was performed by 2 to 4 persons of special panelists for strength of “coffee-like thickness” of each sample, to determine thickness-enhancing effects (thickness-boosting effect) of the ingredients to be evaluated. The organoleptic evaluation was performed by a four grade scoring method for initial taste, middle taste, and aftertaste (sensed in the periods of 0 to 1 second, 1 to 3 seconds, and 3 to 5 seconds after drinking, respectively, which periods are defined for a liquid) with scores of 0 to 3, wherein score 0 means no effect (i.e. strength of the thickness is the same as that of the control sample), score 1 means weakly effective, score 2 means effective, and score 3 means strongly effective.
(§2) As an evaluation system, milk coffee (“Birdy Robusta”, Ajinomoto Co., (Thailand) Ltd.) was used.
(§3) Organoleptic evaluation was performed for strength of “coffee-like thickness” of each sample by 2 persons of special panelists with the same criteria as those of Example 1 wherein score 0 was defined to mean the strength of thickness of each control sample, to determine thickness-enhancing effects (thickness-boosting effects) of the ingredients to be evaluated.

[3] = Organoleptic evaluation of coffee-like thickness in milk coffee with 0.6 ppm γ-Glu-Abu-Gly (Example 3); conditions: for thickness-enhancing effect for initial taste: milk coffee + 0.6 ppm γ-Glu-Abu-Gly, summary of Table 3; for Coffee-like thickness (initial taste) / Coffee-like thickness (middle to aftertaste): milk coffee + γ-Glu-Abu-Gly 0.6 ppm (control = score 0), score 0 to 3, L-tartaric acid 6 ppm, adipic acid 25 ppm, citric acid 3.5 ppm; for Coffee-like thickness (initial taste): 0 to 1 second; for Coffee-like thickness (middle to aftertaste): 1 to 5 seconds
Description: as §1, §2, §3

[4] = Organoleptic evaluation of thickness in cookie with 5 ppm γ-Glu-Val-Gly (Example 4); conditions: for Thickness-enhancing effect for the initial taste: cookie with 5 ppm γ-Glu-Val-Gly, text summary of Table 4; for Thickness (initial taste) / Thickness (middle to aftertaste): cookie, γ-Glu-Val-Gly 5 ppm in dough (control = score 0), score 0 to 3, L-tartaric acid 5 ppm, sodium L-tartrate 2 ppm, adipic acid 20 ppm, citric acid 1 ppm; for Thickness (initial taste): 0 to 4 seconds after eating; for Thickness (middle to aftertaste): 4 to 15 seconds after eating
Description: Organoleptic evaluation was performed by 2 persons of special panelists for strength of “thickness” of each sample, to determine thickness-enhancing effects (thickness-boosting effect) of the ingredients to be evaluated. The organoleptic evaluation was performed by a four grade scoring method for initial taste, middle taste, and aftertaste (sensed in the periods of 0 to 4 second, 4 to 10 seconds, and 10 to 15 seconds after eating, respectively, which periods are defied for a solid) with scores of 0 to 3, wherein score 0 means no effect (i.e. strength of the thickness is the same as that of the control sample, score 1 means weakly effective, score 2 means effective, and score 3 means strongly effective.

[5] = Organoleptic evaluation of thickness in carbonated lemon drink with 15 ppm γ-Glu-Val-Gly (Example 2); conditions: for Thickness (initial taste) / Thickness (middle to aftertaste): carbonated lemon drink + 15 ppm γ-Glu-Val-Gly (control = score 0), score 0 to 3, L-tartaric acid 24 ppm, adipic acid 50 ppm, citric acid 3.5 ppm; for Thickness (initial taste): 0 to 1 second; for Thickness (middle to aftertaste): 1 to 5 seconds
[6] = Organoleptic evaluation of salty taste-like thickness in potage soup with 2 ppm γ-Glu-Val-Gly (Example 2); conditions: for Salty taste-like thickness (initial taste) / Salty taste-like thickness (middle to aftertaste): potage soup + 2 ppm γ-Glu-Val-Gly (control = score 0), score 0 to 3, L-tartaric acid 6 ppm, adipic acid 25 ppm, citric acid 2 ppm; for Salty taste-like thickness (initial taste): 0 to 1 second; for Salty taste-like thickness (middle to aftertaste): 1 to 5 seconds
[7] = carbonated lemon drink + 15 ppm γ-Glu-Val-Gly, Table 2
[8] = potage soup + 2 ppm γ-Glu-Val-Gly, Table 2

O=C(O)CC(O)C(=O)O (racemic) [DL-Malic acid]
Coffee-like thickness (initial taste) [1]: 0 | Coffee-like thickness (middle to aftertaste) [1]: 0

O=C(O)CCCCC(=O)O [Adipic acid]
Coffee-like thickness (initial taste) [1]: 1.0 | Coffee-like thickness (middle to aftertaste) [1]: 0 | Thickness-enhancing effect for the initial taste [1]: observed | thickness-enhancing effect for initial taste [2]: observed | Coffee-like thickness (initial taste) [2]: 1.0 | Coffee-like thickness (middle to aftertaste) [2]: 0.5 | thickness-enhancing effect for initial taste [3]: observed | Coffee-like thickness (initial taste) [3]: 1.0 | Coffee-like thickness (middle to aftertaste) [3]: 1.0 | Thickness-enhancing effect for the initial taste [4]: observed | Thickness (initial taste) [4]: 1.2 | Thickness (middle to aftertaste) [4]: 1.0 | Thickness (initial taste) [5]: 1.5 | Thickness (middle to aftertaste) [5]: 0 | thickness-enhancing effect for initial taste [5, 7]: observed | Salty taste-like thickness (initial taste) [6]: 1.3 | Salty taste-like thickness (middle to aftertaste) [6]: 0 | thickness-enhancing effect for initial taste [6, 8]: observed

[Ca+2].[Cl-].[Cl-] [Calcium chloride]
Coffee-like thickness (initial taste) [1]: 0 | Coffee-like thickness (middle to aftertaste) [1]: 0

O=C(O)CC(O)(CC(=O)O)C(=O)O [Citric acid, reference compound]
Coffee-like thickness (initial taste) [1]: 0 | Coffee-like thickness (middle to aftertaste) [1]: 0 | Coffee-like thickness (initial taste) [2]: 0 | Coffee-like thickness (middle to aftertaste) [2]: 0 | Coffee-like thickness (initial taste) [3]: 0 | Coffee-like thickness (middle to aftertaste) [3]: 0 | Thickness (initial taste) [4]: 0 | Thickness (middle to aftertaste) [4]: 0 | Thickness (initial taste) [5]: 0 | Thickness (middle to aftertaste) [5]: 0 | thickness-enhancing effect [5, 7]: not observed | Salty taste-like thickness (initial taste) [6]: 0 | Salty taste-like thickness (middle to aftertaste) [6]: 0 | thickness-enhancing effect [6, 8]: not observed

O=P([O-])([O-])O.[K+].[K+] [Dipotassium hydrogenphosphate]
Coffee-like thickness (initial taste) [1]: 0 | Coffee-like thickness (middle to aftertaste) [1]: 1.0

O=C(O)[C@H](O)[C@@H](O)C(=O)O [L-Tartaric acid]
Coffee-like thickness (initial taste) [1]: 1.5 | Coffee-like thickness (middle to aftertaste) [1]: 0 | Thickness-enhancing effect for the initial taste [1]: observed | thickness-enhancing effect for initial taste [2]: observed | Coffee-like thickness (initial taste) [2]: 1.5 | Coffee-like thickness (middle to aftertaste) [2]: 0 | thickness-enhancing effect for initial taste [3]: observed | Coffee-like thickness (initial taste) [3]: 1.5 | Coffee-like thickness (middle to aftertaste) [3]: 0 | Thickness-enhancing effect for the initial taste [4]: observed | Thickness (initial taste) [4]: 1.5 | Thickness (middle to aftertaste) [4]: 1.0 | Thickness (initial taste) [5]: 1.0 | Thickness (middle to aftertaste) [5]: 0 | thickness-enhancing effect for initial taste [5, 7]: observed | Salty taste-like thickness (initial taste) [6]: 1.3 | Salty taste-like thickness (middle to aftertaste) [6]: 0 | thickness-enhancing effect for initial taste [6, 8]: observed

[Cl-].[Cl-].[Mg+2] [Magnesium chloride]
Coffee-like thickness (initial taste) [1]: 0 | Coffee-like thickness (middle to aftertaste) [1]: 0

O=P([O-])(O)O.[K+] [Potassium dihydrogenphosphate]
Coffee-like thickness (initial taste) [1]: 0 | Coffee-like thickness (middle to aftertaste) [1]: 0.5

O=C(O)[C@@H]1CCCN1 [Proline]
Coffee-like thickness (initial taste) [1]: 0 | Coffee-like thickness (middle to aftertaste) [1]: 1.5

O=C([O-])[C@H](O)[C@@H](O)C(=O)[O-].[Na+].[Na+] [Sodium L-tartrate]
Thickness (initial taste) [4]: 0.7 | Thickness (middle to aftertaste) [4]: 0.5

O=C([O-])/C=C/C(=O)[O-].[Na+].[Na+] [Sodium fumarate]
Coffee-like thickness (initial taste) [1]: 0 | Coffee-like thickness (middle to aftertaste) [1]: 0

O=C(O)CCC(=O)O [Succinic acid]
Coffee-like thickness (initial taste) [1]: 0 | Coffee-like thickness (middle to aftertaste) [1]: 2.5

O=C([O-])CC(O)(CC(=O)[O-])C(=O)[O-].[Na+].[Na+].[Na+] [Trisodium citrate]
Coffee-like thickness (initial taste) [1]: 0 | Coffee-like thickness (middle to aftertaste) [1]: 0
